Measured values from patent US6562115B2, “Azo dyes and their preparation and use” (Ilford Imaging Switzerland GmbH, priority 2000, dated 2003).

Experiment: Dye solubility in deionised water
Format: physicochemical
Settings: for solubility (in words): assessment of state-of-the-art dyes in the background section
Experimental: An excess of dye was vigorously stirred in deionised water for 1 hour at a temperature of 50° C. The mixture was then cooled down to a temperature of 20° C. and filtered. Dye solubility was determined spectroscopically in the clear filtered solution.

Row | Compound | solubility in comparison to the known dye Acid Red 37 (comparison drawn from Table 3) | solubility (in words) | Solubility (in g per 100 ml of water) (excess dye stirred in deionised water 1 hour at 50° C., cooled to 20° C., filtered, determined spectroscopically)
1 | Nc1ccc2cc(S(=O)(=O)[O-])cc(O)c2c1N=Nc1cc(NC(=O)CCC(=O)[O-])ccc1S(=O)(=O)[O-].[Na+].[Na+].[Na+] [Compound 120] | significantly higher |  | 
2 | Acid Red 37 |  | not sufficient | 5 g per 100 ml of water
3 | Nc1ccc2cc(S(=O)(=O)[O-])cc(O)c2c1N=Nc1ccc(Nc2nc(NCCS(=O)(=O)[O-])nc(NCCS(=O)(=O)[O-])n2)cc1S(=O)(=O)[O-].[Na+].[Na+].[Na+].[Na+] [II] |  | high solubility | 
